Test results: ChEMBL document CHEMBL1127434, “Discovery of nanomolar ligands for 7-transmembrane G-protein-coupled receptors from a diverse N-(substituted)glycine peptoid library” (J Med Chem, 1994)

Tests used:
Mu-type opioid receptor = Mu-type opioid receptor (Rattus norvegicus, UniProt P33535); assay: Compound was evaluated for binding affinity towards mu-specific opiate receptor from rat brain membrane using [3H]DAMGO
[1] = target: T1, Adrenergic receptor alpha-1 (Rattus norvegicus, UniProt P15823+P23944+P43140)
T1 sequence (P15823 whole entry): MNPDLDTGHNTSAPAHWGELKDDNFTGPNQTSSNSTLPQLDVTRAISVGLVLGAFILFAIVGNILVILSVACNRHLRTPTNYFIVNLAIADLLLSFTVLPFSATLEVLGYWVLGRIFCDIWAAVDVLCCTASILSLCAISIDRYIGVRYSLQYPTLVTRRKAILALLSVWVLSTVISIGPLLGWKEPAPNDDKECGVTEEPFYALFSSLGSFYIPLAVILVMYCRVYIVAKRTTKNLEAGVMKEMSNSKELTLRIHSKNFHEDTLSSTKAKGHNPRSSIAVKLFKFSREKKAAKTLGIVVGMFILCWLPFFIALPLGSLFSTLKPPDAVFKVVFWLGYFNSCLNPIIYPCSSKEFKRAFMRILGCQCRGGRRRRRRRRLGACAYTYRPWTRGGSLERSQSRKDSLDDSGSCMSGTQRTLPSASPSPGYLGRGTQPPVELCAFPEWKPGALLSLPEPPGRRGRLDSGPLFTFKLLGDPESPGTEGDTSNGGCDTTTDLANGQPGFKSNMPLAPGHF
T1 sequence (P23944 whole entry): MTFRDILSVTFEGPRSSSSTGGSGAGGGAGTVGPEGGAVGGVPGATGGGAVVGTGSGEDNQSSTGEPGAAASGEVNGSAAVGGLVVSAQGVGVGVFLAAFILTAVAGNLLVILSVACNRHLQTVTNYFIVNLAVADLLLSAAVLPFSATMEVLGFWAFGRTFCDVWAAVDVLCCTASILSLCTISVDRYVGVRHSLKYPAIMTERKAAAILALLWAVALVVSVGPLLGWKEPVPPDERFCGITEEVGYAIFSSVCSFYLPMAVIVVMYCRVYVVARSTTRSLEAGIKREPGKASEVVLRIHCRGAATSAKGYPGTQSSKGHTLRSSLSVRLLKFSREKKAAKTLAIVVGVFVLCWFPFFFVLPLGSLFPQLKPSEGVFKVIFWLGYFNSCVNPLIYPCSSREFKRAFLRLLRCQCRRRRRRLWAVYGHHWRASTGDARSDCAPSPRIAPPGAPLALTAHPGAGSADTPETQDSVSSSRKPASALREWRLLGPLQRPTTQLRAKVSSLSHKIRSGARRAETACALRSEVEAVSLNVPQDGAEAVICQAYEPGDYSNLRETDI
T1 sequence (P43140 whole entry): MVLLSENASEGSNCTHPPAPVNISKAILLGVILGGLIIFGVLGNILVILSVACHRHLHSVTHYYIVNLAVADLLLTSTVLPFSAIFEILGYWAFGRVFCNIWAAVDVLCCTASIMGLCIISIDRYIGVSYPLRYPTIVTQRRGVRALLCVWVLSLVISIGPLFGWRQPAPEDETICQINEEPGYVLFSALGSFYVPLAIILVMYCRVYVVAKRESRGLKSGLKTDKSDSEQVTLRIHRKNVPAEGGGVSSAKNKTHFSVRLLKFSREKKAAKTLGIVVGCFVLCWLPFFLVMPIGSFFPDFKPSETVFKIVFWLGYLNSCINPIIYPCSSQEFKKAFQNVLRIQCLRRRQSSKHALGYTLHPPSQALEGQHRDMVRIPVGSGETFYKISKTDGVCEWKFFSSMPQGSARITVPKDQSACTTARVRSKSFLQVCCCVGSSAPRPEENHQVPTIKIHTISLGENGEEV
Description: Compound was evaluated for binding affinity towards alpha-1 adrenergic receptors from combinatorial peptoid library

[2] = target: T1, Adrenergic receptor alpha-1; assay: Compound was evaluated for its binding affinity against alpha-1 adrenergic receptors; format: protein assay
[3] = target: T1, Adrenergic receptor alpha-1; assay: Compound was evaluated for its binding affinity against alfa1 adrenergic receptors.; format: protein assay

Mu-type opioid receptor, sequence (P33535 whole entry): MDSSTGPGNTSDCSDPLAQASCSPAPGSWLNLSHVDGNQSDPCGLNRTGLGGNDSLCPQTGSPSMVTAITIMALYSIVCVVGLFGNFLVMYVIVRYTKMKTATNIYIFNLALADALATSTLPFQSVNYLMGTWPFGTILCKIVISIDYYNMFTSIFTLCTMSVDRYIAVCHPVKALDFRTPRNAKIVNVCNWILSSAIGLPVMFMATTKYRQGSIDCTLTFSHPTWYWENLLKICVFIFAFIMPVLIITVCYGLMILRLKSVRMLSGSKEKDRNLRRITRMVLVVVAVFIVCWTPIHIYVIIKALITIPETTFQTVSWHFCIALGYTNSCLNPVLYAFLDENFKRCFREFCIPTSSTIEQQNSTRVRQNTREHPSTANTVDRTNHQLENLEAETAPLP

Question: With CCCCCN(CC(=O)N(CCc1ccc(O)cc1)CC(N)=O)C(=O)CNCC(c1ccccc1)c1ccccc1 as the compound, how does the Ki (Mu-type opioid receptor) read?
Answer: 46 nM

Question: How did the Ki [1] turn out when NC(=O)CN(CCc1ccccc1)C(=O)CN(C(=O)CNCCc1ccccc1)c1ccc(-c2ccccc2)cc1 was run?
Answer: 4 nM

Question: With COc1ccc(CN(CC(=O)N(CCc2ccc(O)cc2)CC(N)=O)C(=O)CNCC(c2ccccc2)c2ccccc2)cc1OC as the compound, how does the Ki (Mu-type opioid receptor) read?
Answer: 31 nM

Question: How did the Ki (Mu-type opioid receptor) turn out when NC(=O)CN(CCc1ccc(O)cc1)C(=O)CN(Cc1ccc2c(c1)OCO2)C(=O)CNCC(c1ccccc1)c1ccccc1 was run?
Answer: 6 nM

Question: NC(=O)CN(CCc1ccccc1)C(=O)CN(C(=O)CNCCc1ccc(O)cc1)c1ccc(Oc2ccccc2)cc1 was tested. Which Ki [2] did it give?
Answer: 140 nM

Question: For NC(=O)CN(CCc1ccccc1)C(=O)CN(C(=O)CNCCc1ccc(O)cc1)c1ccc(-c2ccccc2)cc1, which Ki [3] is on record?
Answer: 5 nM

Question: Which Ki [2] does the source give for NC(=O)CN(C(=O)CN(C(=O)CNCCc1ccc(O)cc1)c1ccc(-c2ccccc2)cc1)c1ccc(-c2ccccc2)cc1 here?
Answer: 310 nM
